# Experimental data: US8999966B2, “Compounds that are ERK inhibitors” (Merck Sharp & Dohme Corp., priority 2010, dated 2015)
# Target: fully phosphorylated, active Mouse ERK2 protein (Mus musculus, UniProt P63085)
# Assay: Active ERK2 assay (AERK2), IMAP format
# Format: biochemical
# Details: activated ERK2, IMAP fluorescence polarization, 30 μM ATP
# Method: 14 μl of kinase buffer (10 mM Tris.HCl pH 7.2, 10 mM MgCl2, 0.01% Tween-20, 1 mM DTT) containing 0.4 ng unphosphorylated Mouse ERK2 protein can be added to each well of a black 384-well assay plate. […] DMSO concentration during initial incubation is 6.7%. ERK2 activity can be determined to be insensitive to DMSO concentrations up to 20%. ERK2 can then be activated and it's kinase activity can be measured by the addition of 10 μl kinase buffer with the following components (final concentration per reaction): 2 ng active (phosphorylated) human MEK1 protein and 4 μM (total) ERK2 IMAP substrate peptides (3.9 μM unlabeled IPTTPITTTYFFFK-CONH2 and 100 nM IPTTPITTTYFFFK(5-carboxyfluorescein)-CONH2) and 30 μM ATP. DMSO concentration during ERK activation can be 4%. After one hour, reactions can be terminated by addition of 60 μl IMAP detections beads in binding buffer (Molecular Devices). Binding can be allowed to equilibrate for 30 minutes before reading the plate on an LJL Analyst Fluorescence Polarization plate reader. […] Active compounds can be reconfirmed in an independent assay.
# Activated ERK2 activity was also determined in the IMAP assay format using the procedure outlined above. 1 μl of 25× compound was added to 14 μl of kinase buffer containing 0.25 ng fully phosphorylated, active Mouse ERK2 protein. Following a 30 minute incubation, the reactions were initiated by addition of 10 μl of kinase buffer containing 1 μM ERK2 IMAP substrate peptide (0.9 μM unlabeled IPTTPITTTYFFFK-CONH2 and 100 nM IPTTPITTTYFFFK(5-carboxyfluorescein)-CONH2) and 30 μM ATP. Reactions proceeded for 30 minutes before termination by addition of 60 μl IMAP detection beads in binding buffer. Plates were read as above after 30 minute binding equilibration. Active compounds were reconfirmed in an independent assay.
# Chain of fully phosphorylated, active Mouse ERK2 protein (P63085 whole entry): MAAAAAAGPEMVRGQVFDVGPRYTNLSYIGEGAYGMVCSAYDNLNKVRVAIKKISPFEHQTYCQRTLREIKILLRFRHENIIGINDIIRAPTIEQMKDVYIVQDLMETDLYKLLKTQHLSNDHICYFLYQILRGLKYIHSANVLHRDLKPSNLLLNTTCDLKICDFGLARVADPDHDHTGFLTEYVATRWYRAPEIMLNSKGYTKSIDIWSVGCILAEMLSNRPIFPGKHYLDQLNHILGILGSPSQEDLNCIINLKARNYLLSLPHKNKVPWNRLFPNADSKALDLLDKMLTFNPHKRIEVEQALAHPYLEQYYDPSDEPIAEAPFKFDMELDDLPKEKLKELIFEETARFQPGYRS
row,SMILES,IC50
1,"Cc1noc(C)c1-c1n[nH]c2ccc(-c3n[nH]c([C@@H]4CCCN(Cc5c(F)cccc5F)C4)n3)cc12 [Example 303, 5-[5-[1-[(2,6- DIFLUOROPHENYL)METHYL]- 3(R)-PIPERIDINYL]-1H- 1,2,4-TRIAZOL-3-YL]-3-(3,5- DIMETHYL-4-ISOXAZOLYL)- 1H-INDAZOLE]",≥ 0.504 µM
2,"Clc1cc(-c2n[nH]c3ccc(-c4nnc(C5CCCN(Cc6ccccc6)C5)o4)cc23)ccn1 (centres unmarked) [Example 309, 3-(2-CHLORO-4-PYRIDINYL)- 5-[5-[1-(PHENYLMETHYL)-3- PIPERIDINYL]-1,3,4- OXADIAZOL-2-YL]-1H- INDAZOLE]",> 1 µM
3,"Fc1ccccc1CN1CCC[C@@H](c2nnc(-c3ccc4[nH]nc(-c5ccc6occc6c5)c4c3)o2)C1 [Example 347, 3-(5-BENZOFURANYL)-5-[5- [1-[(2- FLUOROPHENYL)METHYL]- 3(R)-PIPERIDINYL]-1,3,4- OXADIAZOL-2-YL]-1H- INDAZOLE]",≥ 0.504 µM
4,"COc1cccc(F)c1CN1CCC[C@@H](c2nnc(-c3ccc4[nH]nc(-c5ccc(O)c(NC(C)=O)c5)c4c3)o2)C1 [Example 314, N-[5-[5-[5-[1-[(2-FLUORO-6- METHOXYPHENYL)METHYL]- 3(R)-PIPERIDINYL]-1,3,4- OXADIAZOL-2-YL]-1H- INDAZOL-3-YL]-2- HYDROXYPHENYL] ACETAMIDE]",0.0003 to 0.0104 µM
5,"c1csc(CN2CCC[C@@H](c3nc(-c4ccc5[nH]nc(-c6ccc7c(c6)CCO7)c5c4)n[nH]3)C2)c1 [Example 298, 3-(2,3-DIHYDRO-5- BENZOFURANYL)-5-[5-[1-(2- THIENYLMETHYL)-3(R)- PIPERIDINYL]-1H-1,2,4- TRIAZOL-3-YL]-1H- INDAZOLE]",≥ 0.504 µM
6,"Clc1cc(-c2n[nH]c3ccc(-c4nnc([C@@H]5CCCN(Cc6csc7ccccc67)C5)o4)cc23)ccn1 [Example 354, 5-[5-[1-(BENZO[b]THIEN-3- YLMETHYL)-3(R)- PIPERIDINYL]-1,3,4- OXADIAZOL-2-YL]-3-(2- CHLORO-4-PYRIDINYL)-1H- INDAZOLE]",> 1 µM
7,"C1=CCN(Cc2cccs2)[C@@H](c2nc(-c3ccc4[nH]nc(-c5ccc6c(c5)CCO6)c4c3)n[nH]2)C1 [Example 255, 3-(2,3-DIHYDRO-5- BENZOFURANYL)-5-[5- [1,2,3,6-TETRAHYDRO-1-(2- THIENYLMETHYL)-2(R)- PYRIDINYL]-1H-1,2,4- TRIAZOL-3-YL]-1H- INDAZOLE]",≥ 0.504 µM
8,"COc1cccc(F)c1CN1CCC[C@@H](c2nnc(-c3ccc4[nH]nc(-c5ccc6nn(C)cc6c5)c4c3)o2)C1 [Example 322, 5-[5-[1-[(2-FLUORO-6- METHOXYPHENYL)METHYL]- 3(R)-PIPERIDINYL]-1,3,4- OXADIAZOL-2-YL]-3-(2- METHYL-2H-INDAZOL-5- YL)-1H-INDAZOLE]",0.0003 to 0.0104 µM
9,"Fc1cccc(F)c1CN1CCC[C@@H](c2cn(-c3ccc4[nH]nc(-c5ccnc6[nH]ccc56)c4c3)nn2)C1 [Example 248, 5-[4-[1-[(2,6- DIFLUOROPHENYL)METHYL]- 3(R)-PIPERIDINYL]-1H- 1,2,3-TRIAZOL-1-YL]-3-(1H PYRROLO[2,3-b]PYRIDIN-4- YL)-1H-INDAZOLE]",≥ 0.504 µM
10,"Fc1cc(CN2CCC[C@@H](c3nnc(-c4ccc5[nH]nc(-c6ccnc(Cl)c6)c5c4)o3)C2)c(Cl)cc1Cl [Example 358, 3-(2-CHLORO-4-PYRIDINYL)- 5-[5-[1-[(2,4-DICHLORO-5- FLUOROPHENYL)METHYL]- 3(R)-PIPERIDINYL]-1,3,4- OXADIAZOL-2-YL]-1H- INDAZOLE]",≥ 0.504 µM
11,"CC(C)Oc1ccc(-c2n[nH]c3ccc(-c4n[nH]c([C@@H]5CCCN(Cc6c(F)cccc6F)C5)n4)cc23)cc1 [Example 299, 5-[5-[1-[(2,6- DIFLUOROPHENYL)METHYL]- 3(R)-PIPERIDINYL]-1H- 1,2,4-TRIAZOL-3-YL]-3-[4-(1- METHYLETHOXY)PHENYL]- 1H-INDAZOLE]",≥ 0.504 µM
12,"COc1cccc(F)c1CN1CC=CC[C@@H]1c1nc(-c2ccc3[nH]nc(-c4ccc5c(c4)CCO5)c3c2)n[nH]1 [Example 253, 3-(2,3-DIHYDRO-5- BENZOFURANYL)-5-[5-[1-[(2- FLUORO-6- METHOXYPHENYL)METHYL]- 1,2,3,6-TETRAHYDRO- 2(R)-PYRIDINYL]-1H-1,2,4- TRIAZOL-3-YL]-1H- INDAZOLE]",≥ 0.504 µM
13,"CC1(C)Cc2cc(-c3n[nH]c4ccc(-c5n[nH]c([C@@H]6CCCN(Cc7c(F)cccc7F)C6)n5)cc34)ccc2O1 [Example 300, 5-[5-[1-[(2,6- DIFLUOROPHENYL)METHYL]- 3(R)-PIPERIDINYL]-1H- 1,2,4-TRIAZOL-3-YL]-3-(2,3- DIHYDRO-2,2-DIMETHYL-5- BENZOFURANYL)-1H- INDAZOLE]",≥ 0.504 µM
14,"COc1cccc(F)c1CN1CCC[C@@H](c2nnc(-c3ccc4[nH]nc(-c5ccnc(C)c5)c4c3)o2)C1 [Example 336, 5-[5-[1-[(2-FLUORO-6- METHOXYPHENYL)METHYL]- 3(R)-PIPERIDINYL]-1,3,4- OXADIAZOL-2-YL]-3-(2- METHYL-4-PYRIDINYL)-1H- INDAZOLE]",0.0003 to 0.0104 µM
15,"c1ccc2oc(CN3CCC[C@@H](c4nnc(-c5ccc6[nH]nc(-c7ccc8occc8c7)c6c5)o4)C3)cc2c1 [Example 350, 3-(5-BENZOFURANYL)-5-[5- [1-(2- BENZOFURANYLMETHYL)- 3(R)-PIPERIDINYL]-1,3,4- OXADIAZOL-2-YL]-1H- INDAZOLE]",> 1 µM
16,"Fc1ccccc1CN1CCCC(c2nnc(-c3ccc4[nH]nc(-c5ccncc5)c4c3)o2)C1 (centres unmarked) [Example 306, 5-[5-[1-[(2- FLUOROPHENYL)METHYL]- 3-PIPERIDINYL]-1,3,4- OXADIAZOL-2-YL]-3-(4- PYRIDINYL)-1H-INDAZOLE]",0.0003 to 0.0104 µM
17,"CCn1cc(-c2n[nH]c3ccc(-c4nnc([C@@H]5CCCN(Cc6csc7ccccc67)C5)o4)cc23)cn1 [Example 339, 5-[5-[1-(BENZO[b]THIEN-3- YLMETHYL)-3(R)- PIPERIDINYL]-1,3,4- OXADIAZOL-2-YL]-3-(1- ETHYL-1H-PYRAZOL-4-YL)- 1H-INDAZOLE]",> 1 µM
18,"C1=CCN(Cc2ccon2)[C@@H](c2nc(-c3ccc4[nH]nc(-c5ccc6c(c5)CCO6)c4c3)n[nH]2)C1 [Example 256, 3-(2,3-DIHYDRO-5- BENZOFURANYL)-5-[5- [1,2,3,6-TETRAHYDRO-1-(3- ISOXAZOLYLMETHYL)-2(R)- PYRIDINYL]-1H-1,2,4- TRIAZOL-3-YL]-1H- INDAZOLE]",≥ 0.504 µM
19,"Fc1cccc(F)c1CN1CCC[C@@H](c2nc(-c3ccc4[nH]nc(-c5ccnc(F)c5F)c4c3)n[nH]2)C1 [Example 302, 5-[5-[1-[(2,6- DIFLUOROPHENYL)METHYL]- 3(R)-PIPERIDINYL]-1H- 1,2,4-TRIAZOL-3-YL]-3-(2,3- DIFLUORO-4-PYRIDINYL)- 1H-INDAZOLE]",≥ 0.504 µM
20,"COc1cccc(F)c1CN1CCCC(c2ccn(-c3ccc4[nH]nc(-c5ccncc5)c4c3)n2)C1 (centres unmarked) [Example 368, 5-[3-[1-[(2-FLUORO-6- METHOXYPHENYL)METHYL]- 3-PIPERIDINYL]-1H- PYRAZOL-1-YL]-3-(4- PYRIDINYL)-1H-INDAZOLE]",> 1 µM
21,"COc1cccc(F)c1CN1CCOC(c2cn(-c3ccc4[nH]nc(-c5ccncc5)c4c3)nn2)C1 (centres unmarked) [Example 251, 5-[4-[4-[(2-FLUORO-6- METHOXYPHENYL)METHYL]- 2-MORPHOLINYL]-1H- 1,2,3-TRIAZOL-1-YL]-3-(4- PYRIDINYL)-1H-INDAZOLE]",0.0003 to 0.0104 µM
22,"Fc1ccccc1CN1CCC[C@@H](c2nnc(-c3ccc4[nH]nc(-c5ccnc(Cl)c5)c4c3)o2)C1 [Example 353, 3-(2-CHLORO-4-PYRIDINYL)- 5-[5-[1-[(2- FLUOROPHENYL)METHYL]- 3(R)-PIPERIDINYL]-1,3,4- OXADIAZOL-2-YL]-1H- INDAZOLE]",≥ 0.504 µM
23,"Cn1cc(CN2CCC[C@@H](c3nnc(-c4ccc5[nH]nc(-c6ccc7nccn7c6)c5c4)o3)C2)c2ccccc21 [Example 328, 3-IMIDAZO[1,2-a]PYRIDIN-6- YL-5-[5-[1-[(1-METHYL-1H- INDOL-3-YL)METHYL]-3(R)- PIPERIDINYL]-1,3,4- OXADIAZOL-2-YL]-1H- INDAZOLE]",> 1 µM
24,"COc1cccc(CN2CCC[C@@H](c3nnc(-c4ccc5[nH]nc(-c6ccnc(Cl)c6)c5c4)o3)C2)n1 [Example 361, 3-(2-CHLORO-4-PYRIDINYL)- 5-[5-[1-[(6-METHOXY-2- PYRIDINYL)METHYL]-3(R)- PIPERIDINYL]-1,3,4- OXADIAZOL-2-YL]-1H- INDAZOLE]",≥ 0.504 µM
25,"Cn1c(CN2CCC[C@@H](c3nnc(-c4ccc5[nH]nc(-c6ccc7nccn7c6)c5c4)o3)C2)cc2ccccc21 [Example 329, 3-IMIDAZO[1,2-a]PYRIDIN-6- YL-5-[5-[1-[(1-METHYL-1H- INDOL-2-YL)METHYL]-3(R)- PIPERIDINYL]-1,3,4- OXADIAZOL-2-YL]-1H- INDAZOLE]",> 1 µM
26,"CCn1cc(-c2n[nH]c3ccc(-c4nnc([C@@H]5CCCN(Cc6cc7ccccc7n6C)C5)o4)cc23)cn1 [Example 342, 3-(1-ETHYL-1H-PYRAZOL-4- YL)-5-[5-[1-[(1-METHYL-1H- INDOL-2-YL)METHYL]-3(R)- PIPERIDINYL]-1,3,4- OXADIAZOL-2-YL]-1H- INDAZOLE]",> 1 µM
